Assay [1] concerns the target Glycogen synthase kinase-3 alpha (Homo sapiens) (UniProt P49840). As to the kind of experiment: Residual activity of GSK3alpha at 0.1 uM by microplate scintillation counting.
Assay [2] deals with Eukaryotic translation initiation factor 2-alpha kinase 1 (Homo sapiens) (UniProt Q9BQI3). As to the kind of experiment: Residual activity of HRI at 0.1 uM by microplate scintillation counting.
Assay [3] addresses T1, Discoidin domain-containing receptor 2 (Homo sapiens) (UniProt Q16832).
T1 sequence (whole entry): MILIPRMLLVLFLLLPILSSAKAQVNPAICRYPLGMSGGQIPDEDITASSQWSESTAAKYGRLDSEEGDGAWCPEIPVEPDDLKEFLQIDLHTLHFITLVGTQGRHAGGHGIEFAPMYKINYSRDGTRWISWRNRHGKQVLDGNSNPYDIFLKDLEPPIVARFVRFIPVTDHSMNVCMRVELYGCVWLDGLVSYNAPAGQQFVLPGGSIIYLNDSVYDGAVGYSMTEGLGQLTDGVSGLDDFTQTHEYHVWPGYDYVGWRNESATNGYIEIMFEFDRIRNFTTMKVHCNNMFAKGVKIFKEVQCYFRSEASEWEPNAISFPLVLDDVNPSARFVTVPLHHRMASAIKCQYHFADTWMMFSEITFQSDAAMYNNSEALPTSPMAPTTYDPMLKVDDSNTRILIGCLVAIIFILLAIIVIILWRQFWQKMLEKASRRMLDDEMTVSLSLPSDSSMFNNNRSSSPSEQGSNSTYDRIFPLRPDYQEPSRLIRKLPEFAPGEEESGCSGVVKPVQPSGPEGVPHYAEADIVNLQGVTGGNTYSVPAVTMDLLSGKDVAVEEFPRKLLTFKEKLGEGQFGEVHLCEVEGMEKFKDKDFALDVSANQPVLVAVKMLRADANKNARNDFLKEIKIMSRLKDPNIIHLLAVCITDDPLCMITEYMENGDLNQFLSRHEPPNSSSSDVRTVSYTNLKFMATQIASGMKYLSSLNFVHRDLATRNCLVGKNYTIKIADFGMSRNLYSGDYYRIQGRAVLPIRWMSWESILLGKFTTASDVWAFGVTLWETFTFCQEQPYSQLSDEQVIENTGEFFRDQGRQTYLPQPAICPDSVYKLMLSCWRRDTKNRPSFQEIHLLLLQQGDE
As to the kind of experiment: Residual activity of DDR2 at 10 uM by microplate scintillation counting.

Assay [4] has as its target Protein kinase C delta type (Homo sapiens) (UniProt Q05655). As to the kind of experiment: Residual activity of PKCdelta at 1 uM by microplate scintillation counting.
For assay [5], the target named is T2, cAMP-dependent protein kinase catalytic subunit PRKX (Homo sapiens) (UniProt P51817).
T2 sequence (whole entry): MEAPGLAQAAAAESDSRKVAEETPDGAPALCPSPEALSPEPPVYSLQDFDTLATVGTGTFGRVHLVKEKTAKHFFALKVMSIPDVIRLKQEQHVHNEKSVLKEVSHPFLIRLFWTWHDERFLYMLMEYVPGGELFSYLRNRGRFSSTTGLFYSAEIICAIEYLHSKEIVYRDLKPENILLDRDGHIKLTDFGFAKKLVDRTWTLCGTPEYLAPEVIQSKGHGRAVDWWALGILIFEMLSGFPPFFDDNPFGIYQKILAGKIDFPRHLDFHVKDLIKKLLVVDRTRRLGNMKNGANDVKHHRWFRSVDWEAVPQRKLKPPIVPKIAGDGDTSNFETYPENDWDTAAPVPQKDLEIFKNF
The assay can be described thus: Residual activity of PRKX at 1 uM by microplate scintillation counting.

Assay [6] deals with RAF proto-oncogene serine/threonine-protein kinase (Homo sapiens), P04049 [Y340D,Y341D]. The assay can be described thus: Residual activity of RAF1 Y340D/Y341D mutant at 10 uM by microplate scintillation counting.
In assay [7] the target is Casein kinase II subunit alpha (Homo sapiens) (UniProt P68400). The assay can be described thus: Residual activity of CK2alpha1 at 1 uM by microplate scintillation counting.
The target of assay [8] is Macrophage-stimulating protein receptor (Homo sapiens) (UniProt Q04912). As to the kind of experiment: Residual activity of RON at 10 uM by microplate scintillation counting.
Assay [9] concerns the target Tyrosine-protein kinase BTK (Homo sapiens) (UniProt Q06187). The assay can be described thus: Residual activity of BTK at 0.1 uM by microplate scintillation counting.
The target in assay [10] is T3, Serine/threonine-protein kinase TBK1 (Homo sapiens) (UniProt Q9UHD2).
T3 sequence (whole entry): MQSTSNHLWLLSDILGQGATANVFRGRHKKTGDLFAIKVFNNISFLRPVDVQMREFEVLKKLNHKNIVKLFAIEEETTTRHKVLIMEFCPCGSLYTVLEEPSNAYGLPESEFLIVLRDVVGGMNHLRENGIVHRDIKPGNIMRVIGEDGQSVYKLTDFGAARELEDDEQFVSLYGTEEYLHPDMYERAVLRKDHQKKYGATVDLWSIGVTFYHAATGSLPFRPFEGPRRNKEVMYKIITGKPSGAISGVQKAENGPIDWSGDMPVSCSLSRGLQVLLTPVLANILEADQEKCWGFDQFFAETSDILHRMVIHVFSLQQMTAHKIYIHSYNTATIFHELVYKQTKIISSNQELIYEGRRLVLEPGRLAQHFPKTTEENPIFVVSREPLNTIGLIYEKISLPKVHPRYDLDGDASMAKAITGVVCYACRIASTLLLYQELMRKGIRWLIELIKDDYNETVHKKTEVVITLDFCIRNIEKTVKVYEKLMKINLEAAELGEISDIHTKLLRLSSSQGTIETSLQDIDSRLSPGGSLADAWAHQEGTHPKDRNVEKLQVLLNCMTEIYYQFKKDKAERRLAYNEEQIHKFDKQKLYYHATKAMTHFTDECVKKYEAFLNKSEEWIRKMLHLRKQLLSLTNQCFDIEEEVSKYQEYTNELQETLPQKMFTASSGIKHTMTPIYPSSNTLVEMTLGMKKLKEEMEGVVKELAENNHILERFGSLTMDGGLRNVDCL
The assay can be described thus: Residual activity of TBK1 at 1 uM by microplate scintillation counting.

The test system of assay [11] is Epidermal growth factor receptor (Homo sapiens), P00533 [L858R]. The assay can be described thus: Residual activity of EGFR L858R mutant at 0.1 uM by microplate scintillation counting.

Each structure is given as a SMILES string.

Casein kinase II subunit alpha (Homo sapiens), sequence (P68400 whole entry, looked up): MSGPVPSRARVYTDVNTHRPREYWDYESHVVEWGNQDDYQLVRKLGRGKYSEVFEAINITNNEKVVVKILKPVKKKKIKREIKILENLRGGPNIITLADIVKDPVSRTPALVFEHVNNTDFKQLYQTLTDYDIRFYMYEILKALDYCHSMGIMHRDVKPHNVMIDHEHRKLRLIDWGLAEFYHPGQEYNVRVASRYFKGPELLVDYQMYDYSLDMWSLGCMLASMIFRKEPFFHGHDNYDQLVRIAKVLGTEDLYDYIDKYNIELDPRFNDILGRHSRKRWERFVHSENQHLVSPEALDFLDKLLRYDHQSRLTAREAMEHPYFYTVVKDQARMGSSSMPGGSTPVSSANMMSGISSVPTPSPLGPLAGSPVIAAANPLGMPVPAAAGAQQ
Eukaryotic translation initiation factor 2-alpha kinase 1 (Homo sapiens), sequence (Q9BQI3 whole entry, the tested form may be a part): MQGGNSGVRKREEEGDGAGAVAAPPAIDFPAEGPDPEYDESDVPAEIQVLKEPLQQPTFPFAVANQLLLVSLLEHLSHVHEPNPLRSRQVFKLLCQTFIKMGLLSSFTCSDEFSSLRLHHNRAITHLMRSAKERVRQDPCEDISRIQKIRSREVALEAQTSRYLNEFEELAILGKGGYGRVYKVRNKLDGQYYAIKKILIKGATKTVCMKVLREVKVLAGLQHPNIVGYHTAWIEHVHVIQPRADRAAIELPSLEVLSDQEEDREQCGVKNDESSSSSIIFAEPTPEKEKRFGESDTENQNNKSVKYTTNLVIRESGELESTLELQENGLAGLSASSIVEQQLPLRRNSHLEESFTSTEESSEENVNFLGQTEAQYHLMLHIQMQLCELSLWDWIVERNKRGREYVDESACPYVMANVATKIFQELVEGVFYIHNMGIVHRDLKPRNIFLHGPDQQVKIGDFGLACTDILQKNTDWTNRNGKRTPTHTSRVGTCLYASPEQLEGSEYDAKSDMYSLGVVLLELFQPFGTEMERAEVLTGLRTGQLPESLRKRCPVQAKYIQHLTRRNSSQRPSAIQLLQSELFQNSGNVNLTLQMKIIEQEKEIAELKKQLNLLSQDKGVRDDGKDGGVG
Glycogen synthase kinase-3 alpha (Homo sapiens), sequence (P49840 2-483 limits assumed): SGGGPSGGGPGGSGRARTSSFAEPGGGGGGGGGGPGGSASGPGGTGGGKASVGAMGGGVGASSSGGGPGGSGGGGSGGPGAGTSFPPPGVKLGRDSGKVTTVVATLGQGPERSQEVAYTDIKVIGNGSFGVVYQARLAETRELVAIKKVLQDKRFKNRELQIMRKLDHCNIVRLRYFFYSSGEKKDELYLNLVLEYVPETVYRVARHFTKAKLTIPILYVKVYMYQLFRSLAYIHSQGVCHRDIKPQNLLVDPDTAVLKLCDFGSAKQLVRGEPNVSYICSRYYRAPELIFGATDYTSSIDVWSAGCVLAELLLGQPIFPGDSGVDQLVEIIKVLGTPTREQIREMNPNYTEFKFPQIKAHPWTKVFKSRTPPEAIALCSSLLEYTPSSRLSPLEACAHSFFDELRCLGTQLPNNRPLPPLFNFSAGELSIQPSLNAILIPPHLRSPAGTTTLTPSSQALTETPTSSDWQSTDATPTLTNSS
Protein kinase C delta type (Homo sapiens), sequence (Q05655 whole entry, looked up): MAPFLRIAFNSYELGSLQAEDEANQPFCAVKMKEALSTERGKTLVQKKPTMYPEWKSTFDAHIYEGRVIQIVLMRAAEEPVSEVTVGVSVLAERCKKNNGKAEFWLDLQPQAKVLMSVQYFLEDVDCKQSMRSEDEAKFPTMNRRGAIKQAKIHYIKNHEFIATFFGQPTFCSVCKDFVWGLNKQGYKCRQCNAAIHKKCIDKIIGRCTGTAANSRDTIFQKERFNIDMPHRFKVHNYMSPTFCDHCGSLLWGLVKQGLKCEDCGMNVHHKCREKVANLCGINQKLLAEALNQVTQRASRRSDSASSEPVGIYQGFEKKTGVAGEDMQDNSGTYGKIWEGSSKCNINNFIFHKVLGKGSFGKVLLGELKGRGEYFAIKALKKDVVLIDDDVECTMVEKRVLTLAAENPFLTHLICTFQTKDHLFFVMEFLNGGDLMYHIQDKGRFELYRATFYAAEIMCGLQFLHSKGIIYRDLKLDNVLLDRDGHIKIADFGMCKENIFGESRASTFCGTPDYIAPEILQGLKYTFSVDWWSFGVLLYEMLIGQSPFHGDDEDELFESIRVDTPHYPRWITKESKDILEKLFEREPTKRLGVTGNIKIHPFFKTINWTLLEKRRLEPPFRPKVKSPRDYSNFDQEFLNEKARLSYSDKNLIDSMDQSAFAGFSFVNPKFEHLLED
Tyrosine-protein kinase BTK (Homo sapiens), sequence (Q06187 whole entry): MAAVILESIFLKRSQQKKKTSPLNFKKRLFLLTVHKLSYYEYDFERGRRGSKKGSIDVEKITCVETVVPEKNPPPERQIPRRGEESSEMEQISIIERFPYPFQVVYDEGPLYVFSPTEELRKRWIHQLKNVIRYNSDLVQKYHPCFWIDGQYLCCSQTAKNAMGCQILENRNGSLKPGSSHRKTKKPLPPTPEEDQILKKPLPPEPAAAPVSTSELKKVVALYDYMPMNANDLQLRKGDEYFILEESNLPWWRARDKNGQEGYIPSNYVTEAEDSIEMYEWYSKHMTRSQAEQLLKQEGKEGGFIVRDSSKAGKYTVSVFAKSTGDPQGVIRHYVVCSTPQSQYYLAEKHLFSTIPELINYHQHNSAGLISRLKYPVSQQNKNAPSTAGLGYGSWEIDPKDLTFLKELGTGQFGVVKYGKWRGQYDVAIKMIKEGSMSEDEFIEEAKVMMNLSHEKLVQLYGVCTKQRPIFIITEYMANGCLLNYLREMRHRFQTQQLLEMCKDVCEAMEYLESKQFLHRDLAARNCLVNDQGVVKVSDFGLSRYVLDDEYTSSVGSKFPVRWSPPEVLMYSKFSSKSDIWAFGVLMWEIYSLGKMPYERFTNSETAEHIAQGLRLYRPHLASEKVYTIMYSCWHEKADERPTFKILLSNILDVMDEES
Macrophage-stimulating protein receptor (Homo sapiens), sequence (Q04912 25-304 limits assumed): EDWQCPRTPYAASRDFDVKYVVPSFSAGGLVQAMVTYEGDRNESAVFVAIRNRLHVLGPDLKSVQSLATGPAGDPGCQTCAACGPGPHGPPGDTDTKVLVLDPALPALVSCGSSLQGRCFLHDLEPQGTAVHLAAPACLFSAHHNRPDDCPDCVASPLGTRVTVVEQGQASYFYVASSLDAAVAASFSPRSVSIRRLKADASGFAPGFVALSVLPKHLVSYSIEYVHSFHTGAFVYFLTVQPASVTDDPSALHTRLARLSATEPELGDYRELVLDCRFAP
Macrophage-stimulating protein receptor (Homo sapiens), sequence (Q04912 310-1400 limits assumed): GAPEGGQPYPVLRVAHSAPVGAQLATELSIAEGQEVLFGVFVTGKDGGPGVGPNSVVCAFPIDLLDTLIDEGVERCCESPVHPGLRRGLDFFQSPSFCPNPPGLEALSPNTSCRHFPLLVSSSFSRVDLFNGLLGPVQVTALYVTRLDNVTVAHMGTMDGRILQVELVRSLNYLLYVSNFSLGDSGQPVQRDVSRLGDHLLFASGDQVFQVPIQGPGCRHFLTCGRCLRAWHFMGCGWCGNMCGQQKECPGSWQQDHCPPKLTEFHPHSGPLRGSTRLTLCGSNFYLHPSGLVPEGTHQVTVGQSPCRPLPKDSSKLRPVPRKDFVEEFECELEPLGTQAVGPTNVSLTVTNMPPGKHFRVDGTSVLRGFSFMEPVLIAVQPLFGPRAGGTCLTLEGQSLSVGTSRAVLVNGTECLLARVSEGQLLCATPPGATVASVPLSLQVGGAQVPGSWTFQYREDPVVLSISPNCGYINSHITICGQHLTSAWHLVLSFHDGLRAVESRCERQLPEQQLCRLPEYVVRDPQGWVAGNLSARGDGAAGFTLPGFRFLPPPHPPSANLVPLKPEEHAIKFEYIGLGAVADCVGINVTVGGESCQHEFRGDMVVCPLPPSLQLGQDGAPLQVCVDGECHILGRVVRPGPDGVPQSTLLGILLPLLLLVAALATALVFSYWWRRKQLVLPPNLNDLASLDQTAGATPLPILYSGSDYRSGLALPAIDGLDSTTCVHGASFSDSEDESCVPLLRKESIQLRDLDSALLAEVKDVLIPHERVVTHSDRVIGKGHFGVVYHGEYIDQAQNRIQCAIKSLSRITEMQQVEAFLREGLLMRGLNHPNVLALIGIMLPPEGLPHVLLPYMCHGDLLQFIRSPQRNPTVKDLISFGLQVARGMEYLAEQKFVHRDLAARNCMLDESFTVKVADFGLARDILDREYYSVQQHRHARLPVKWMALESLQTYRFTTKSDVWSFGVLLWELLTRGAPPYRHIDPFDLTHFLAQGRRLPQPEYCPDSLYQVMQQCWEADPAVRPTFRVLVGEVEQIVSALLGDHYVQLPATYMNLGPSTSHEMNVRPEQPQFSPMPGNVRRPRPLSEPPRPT

Take `COc1cc2c(Oc3ccc(-c4nc5ccccc5s4)cc3F)ncnc2cc1OCCCN1CCN(C)CC1`: the residual activity in [1] is 104%; in assay [2], 98%; in [3], 30%; in assay [4] it was 94%; in [5] it was 92%; in assay [6] it was 108%. Besides, the residual activity came out at 108% in assay [7]; 55% in assay [8]; 101% in assay [9]; 99% in [10]; 94% in [11].

Consider `COc1cc2c(Oc3ccc(-c4nc5ccccc5s4)cc3)ncnc2cc1OCCCN1CCN(C)CC1`, for which the residual activity came to 103% in [1]; 113% in [2]; 25% in assay [3]; 103% in assay [4]; 89% in assay [5]; 74% in assay [6]. For the same compound, the residual activity was determined as 90% in [7]; 76% in assay [8]; 100% in [9]; 85% in assay [10]; 93% in assay [11].

For the compound `COc1cc2c(Oc3ccc(-c4nc5ccccc5s4)cc3)ncnc2cc1OCCCN1CCCC1`, the residual activity came out at 95% in assay [1]; 92% in [2]; 42% in [3]; 93% in [4]; 86% in [5]; 61% in [6]. Further, the residual activity in assay [7] turned out to be 94%; in [8] it was 53%; in assay [9], 106%; in assay [10], 92%; in assay [11] it was 92%.

The values are drawn from ChEMBL document CHEMBL1152560, “Substituted 2-arylbenzothiazoles as kinase inhibitors: hit-to-lead optimization” (Bioorg Med Chem, 2009).
